Assays:
mGluR4 variant = target: T1, mGluR4 variant (Rattus norvegicus, UniProt P31423); experiment: Measurement of function of mGluR4 variant gene by cAMP measurement in variant expressing CHO-K1 cells; type: cell-based; conditions: 1 mM; for amount of cAMP: in presence of IBMX 100 μM and forskolin 10 μM, n=3
T1 construct: A full-length cDNA of a novel mGluR4 variant was amplified again by a RT-PCR method; V5-His (only in the cloning vector's name); expressed in transfected cells
Method: The prepared vector (pcDNA3.1E) was introduced in CHO-K1 cell (Dainippon Pharmaceutical Co., Ltd.) by using polyFect reagent (Qiagen). After 48 hours, neomycin (600 μg/ml) was added to a culture medium (Modified Eagle Medium (αMEM) containing 10% fetal bovine serum, 100 U/ml penicillin; Nacalai Tesque) and cultivation was continued for 2 to 3 weeks to perform screening of gene-introduced cells.
The variant expressing cells obtained as described above were dispensed to 2.5×10^5 cells/well on a plate (24-well) and cultivated for 20 hours and then used for the measurement of the function of cAMP. Each plate was washed well with Dulbeco's phosphate buffer and incubated for 20 minutes. Thereafter, stimulation was performed with each drug for 10 minutes at 37° C. After the stimulation, the cells were at once treated with ice-cooled 2.5% perchloric acid (PCA) for 30 minutes, neutralized with KOH, and centrifuged to obtain a supernatant (12,000 rpm×10 min, 4° C.). The cAMP content of the supernatant was determined according to a conventional enzyme immunoassay (ELISA) by using a cAMP assay kit (Amersham).

[1] = test system: abdominal cavity branch of vagus nerve; experiment: Afferent activity of the abdominal cavity branch of vagus nerve after intraduodenal administration; type: in vivo, rat; conditions: 150 mM administered in the duodenum; urethane-anesthetized Wistar rats starved for 18 hours
Method: After starved for 18 hours, rats (Wistar strain, male, 8 to 10 week age: Japan Charles River) were laparotomized under anesthesis with urethane (1 g/kg, i.p.) and about 5 mm of the abdominal cavity branch of vagus nerve was peeled off under stereoscopic microscope. After the cutting of vagus nerve fasciculus, the vagus nerve fasciculus was placed on a small operation stage (8×6 mm) and fat and connective tissue surrounding the vagus nerve fasciculus were carefully peeled off. The terminal fiber on the organ side was placed on a platinum-made bipolar electrode and insulated from the surrounding tissue with liquid paraffin/vaseline (1:1) mixed solution. […]
The neural activity potential was amplified 10,000 folds by a micro potential amplifier (DAM-80 manufactured by WPI) and subjected to A/D conversion (Powerlab 4sp, manufactured by ADI Instruments) after noise was decreased by a Bessel filter (4-pole, […]). […] Simultaneously, while monitoring the amplified signals by an oscilloscope, a noise component is separated from a neural signal component by a window discriminator (DSE-435, manufactured by DiaMedical Corporation), integrated for 5 seconds by a Spike Counter (DSE-335P, manufactured by Nihon Kohden Corporation) and recorded by a chart recorder (WT-465G, manufactured by Nihon Kohden Corporation). […]

T1 sequence (P31423 with tags, fused parts or gaps): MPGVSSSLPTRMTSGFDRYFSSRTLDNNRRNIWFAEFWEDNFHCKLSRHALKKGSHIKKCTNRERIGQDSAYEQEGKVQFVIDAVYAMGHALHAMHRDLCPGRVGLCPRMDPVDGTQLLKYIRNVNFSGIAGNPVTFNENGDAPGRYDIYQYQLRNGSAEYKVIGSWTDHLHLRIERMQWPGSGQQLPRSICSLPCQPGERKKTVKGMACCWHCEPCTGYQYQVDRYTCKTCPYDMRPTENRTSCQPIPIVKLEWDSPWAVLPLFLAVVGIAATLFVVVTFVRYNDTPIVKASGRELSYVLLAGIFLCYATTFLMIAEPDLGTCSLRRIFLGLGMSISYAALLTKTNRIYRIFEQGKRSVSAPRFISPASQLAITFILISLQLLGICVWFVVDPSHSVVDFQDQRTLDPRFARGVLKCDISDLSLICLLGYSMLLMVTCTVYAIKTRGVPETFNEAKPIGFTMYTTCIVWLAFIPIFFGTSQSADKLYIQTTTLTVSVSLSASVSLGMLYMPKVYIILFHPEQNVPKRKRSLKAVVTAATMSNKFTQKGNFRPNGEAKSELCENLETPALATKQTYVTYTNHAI

Row | SMILES | amount of cAMP (mGluR4 variant) | decrease of the amount of cAMP accumulated in the mGluR4 variant expressing cell (mGluR4 variant; versus sodium chloride (1 mM) added group, IBMX 100 μM and forskolin 10 μM present) | afferent activity of the abdominal cavity branch of vagus nerve [1]
1 | N[C@@H](CCC(=O)O)C(=O)O [glutamic acid] | 1,235 fmole | about 19% | –
2 | [Cl-].[Na+] [sodium chloride] | 1,519 fmole | – | –
3 | N[C@@H](CCC(=O)[O-])C(=O)[O-].[Na+].[Na+] [MSG, sodium L-glutamate] | – | – | increased

From patent publication US7157250B2, “Glutamic acid receptor and utilization thereof” (Ajinomoto Co., Inc., priority 2004, dated 2007)
